Results: US20210009557A1, “ACYCLIC CXCR4 INHIBITORS AND USES THEREOF” (X4 Pharmaceuticals, Inc., priority 2017, published 2021)

Experiments:
[1] = biological target: T1, CXCR-4 transfected U87 cell line (U87.CXCR4) (Homo sapiens, UniProt P61073); experiment: Intracellular CXCL-12-induced calcium mobilization assay (FLIPR); format: cell-based; conditions: U87.CXCR4 cells; CXCL-12 25-50 ng/mL; compounds added 15 minutes before; read-out: IC50 CXCL-12 Ca2+ flux U87.CXCR4+
T1 construct: expressed in transfected cells; host or cells: U87 cell line (U87.CXCR4)
T1 sequence (P61073 whole entry): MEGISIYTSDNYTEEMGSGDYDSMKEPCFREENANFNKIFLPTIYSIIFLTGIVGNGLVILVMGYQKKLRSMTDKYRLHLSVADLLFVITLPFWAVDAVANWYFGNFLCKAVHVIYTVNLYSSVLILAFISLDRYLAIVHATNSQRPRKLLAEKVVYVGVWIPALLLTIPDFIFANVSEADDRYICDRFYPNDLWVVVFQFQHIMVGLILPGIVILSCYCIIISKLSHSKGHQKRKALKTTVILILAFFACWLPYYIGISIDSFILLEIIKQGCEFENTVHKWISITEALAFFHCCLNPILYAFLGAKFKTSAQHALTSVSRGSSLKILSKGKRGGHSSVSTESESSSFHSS
Procedure: Intracellular calcium mobilization induced by chemokines orchemokine-derived peptides were evaluated using a calcium responsive fluorescent probe and a FLIPR system. The CXCR-4 transfected U87 cell line (U87.CXCR4) cells were seeded in gelatine-coated black-wall 96-well plates at 20,000 cells per well and incubated for 12 hours. Cells were then loaded with the fluorescent calcium probe Fluo-2 acetoxymethyl at 4 μM final concentration in assay buffer (Hanks' balanced salt solution with 20 mM HEPES buffer and 0.2% bovine serum albumin, pH 7.4) for 45 min at 37′C. The intracellular calcium mobilization induced by the CXCL-12 (25-50 ng/mL) was then measured at 37° C. by monitoring the fluorescence as a function of time in all the wells simultaneously using a fluorometric imaging plate reader (FLIPR Tetra, Molecular Devices).

[2] = biological target: T2, Jurkat cells expressing CXCR4 (Homo sapiens, UniProt P61073); experiment: Chemokine (CXCL12-AF647) binding inhibition assay; conditions: CXCL12-AF647 25 ng/mL, read-out: IC50 CXCL-12 binding Jurkat
T2 construct: Jurkat cells expressing CXCR4; endogenous in cells; host or cells: Jurkat cells
T2 sequence (P61073 whole entry): as above
Procedure: Jurkat cells expressing CXCR4 were washed once with assay buffer (Hanks' balanced salt solution with 20 mM HEPES buffer and 0.2% bovine serum albumin, pH 7.4) and then incubated for 15 min at room temperature with the test compounds diluted in assay buffer at dose-dependent concentrations. Subsequently, CXCL12-AF647 (25 ng/mL) was added to the compound-incubated cells. The cells were incubated for 30 min at room temperature. Thereafter, the cells were washed twice in assay buffer, fixed in 1% paraformaldehyde in PBS, and analyzed on the FL4 channel of a FACSCalibur flow cytometer equipped with a 635-nm red diode laser (Becton Dickinson, San Jose, Calif., USA).
The percentages of inhibition of CXCL12-AF647 binding were calculated according to the formula: [1−((MFI−MFINC)/(MFIPC−MFINC))]×100 where MFI is the mean fluorescence intensity of the cells incubated with CXCL12-AF647 in the presence of the inhibitor, MFINC is the mean fluorescence intensity measured in the negative control (i.e., autofluorescence of unlabeled cells), and MFIPC is the mean fluorescence intensity of the positive control (i.e., cells exposed to CXCL12-AF647 alone).

in vitro = conditions: human, Caco-2, pH 7.4
Procedure: The goal of this assay was to evaluate the intestinal absorption potential of drug candidates using Caco-2 cell lines.
Experimental Procedure • 1. Pre-warm Pre-warm HBSS Buffer in 37° C. water bath • 2. Sonicate Take compounds from −20° C., sonicate for a few minutes (no less than 1 minute) • 3. Solution preparation
For A-to-B Direction: • HBSS buffer with 0.3% DMSO and 5 μM LY: add 150 μL DMSO and 50 μL LY (5 mM) into 50 ml HBSS buffer (pH 7.4). • HBSS buffer with 0.1% DMSO and 5 μM LY: add 50 μL DMSO and 50 μL LY (5 mM) into 50 mL HBSS buffer (pH 7.4).
For B-to-A Direction: • HBSS buffer with 0.3% DMSO: add 150 μL DMSO into 50 ml HBSS buffer (pH 7.4). HBSS buffer with 0.1% DMSO: add 50 μL DMSO into 50 ml HBSS buffer (pH 7.4).
For A-to-B Direction: • Prepare HBSS buffer with 0.4% DMSO: add 200 μL DMSO into 50 ml HBSS buffer (pH 7.4).
For B-to-A Direction: • Prepare HBSS buffer with 0.4% DMSO and 5 μM LY: add 200 μL DMSO and 50 μL LY (5 mM) into 50 ml HBSS buffer (pH 7.4).
• 4. Measure TEER Take cell culture plate out of incubator, wash the cell monolayers with HBSS buffer, and then measure TEER values at Rm temperature. • 5. Centrifuge Centrifuge the compound solution (from step 3) at 4000 rpm for 5 min before loading to donor chambers. • 6. Dosing Add solution based on the volumes listed in the following table (make sure to take extra 100 μL of donor sample for T0 as Backup).
• 7. Apical LYTO samples To determine LY concentration in the apical chamber, take 100 μL sample from apical chambers into an opaque plate for LYTO. • 8. Pre-warm Pre-warm apical and basolateral plates at 37° C. for about 5 min, then begin transport by placing the apical plate onto basolateral plate. • 9. Incubation Keep the plates in incubator at 37° C. for 90 min. • 10.
• Prepare 1× solution: • 3 μL (20×)+57 μL of 0.4% DMSO HBSS+60 μL ACN with IS (Osalmid or Imipramine)—120 μL (1×) • 11. Transport termination Separate the apical plate from the basolateral plate after 90-min incubation. • 12. Measure LY Take 100 μL samples from basolateral plate to an opaque plate as LYT90. • 13. Measure LY concentrations for LYTO and LYT90 by Fluorometer (at excitation of 485 nm/emission of 535 nm). • 14.
Drug permeability: Papp=(VA/(Area×time))×([drug]accepter/(([drug]initial, donor)×Dilution Factor) • Where VA is the volume in the acceptor well, area is the surface area of the membrane and time is the total transport time in seconds.
For Millicell-24 Cell Culture Plates: surface area of the membrane=0.7 cm^2, VA=0.8 mL (A-to-B) or 0.4 mL (B-to-A)

Row | Structure (SMILES) | IC50 [1] | IC50 [2] | Papp A→B at 90 min, 10 μM (in vitro) | Papp B→A at 90 min, 10 μM (in vitro) | efflux ratio at 90 min, 10 μM (in vitro)
1 | CC(c1ccccn1)N(CCc1ccccn1)Cc1ccccn1 (stereo not shown) [Compound I-1, 2-(Pyridin-2-yl)-N-(1-(pyridin-2-yl)ethyl)-N-(pyridin-2-ylmethyl)ethan-1-amine] | ≥ 1000 nM | 0.01 to 100 nM |  |  | 
2 | CC(c1ccccn1)N(CCc1ccccn1)Cc1nc2ccccc2[nH]1 (stereo not shown) [Compound I-2, N-((1H-benzo[d]imidazol-2-yl)methyl)-2-(pyridin-2-yl)-N-(1-(pyridin-2-yl)ethyl)ethanamine] | 0.01 to 100 nM | 0.01 to 100 nM | > 10 ×10⁻⁶ cm/s | > 10 ×10⁻⁶ cm/s | 0.1 to 10
3 | Cc1cccnc1CN(CCc1ccccn1)C(C)c1ccccn1 (stereo not shown) [Compound I-3] | 100 to 1000 nM | 0.01 to 100 nM | > 10 ×10⁻⁶ cm/s | > 10 ×10⁻⁶ cm/s | 0.1 to 10
4 | Cc1cccnc1CN(CCc1ccccn1)Cc1ncccc1C [Compound I-4] | 100 to 1000 nM | 0.01 to 100 nM | > 10 ×10⁻⁶ cm/s | > 10 ×10⁻⁶ cm/s | 0.1 to 10
5 | Cc1cccnc1CN(CCc1ccccn1)Cc1ncccc1Cl [Compound I-5] | 100 to 1000 nM | 0.01 to 100 nM | > 10 ×10⁻⁶ cm/s | > 10 ×10⁻⁶ cm/s | 0.1 to 10
6 | CC(c1ccccn1)N(CCc1cnc[nH]1)Cc1ccccn1 (stereo not shown) [Compound I-6] | ≥ 1000 nM | 0.01 to 100 nM | < 5 ×10⁻⁶ cm/s | > 10 ×10⁻⁶ cm/s | 10 to 30
7 | CC(c1ccccn1)N(CCc1cnc[nH]1)Cc1nc2ccccc2[nH]1 (stereo not shown) [Compound I-7, N-((1H-benzo[d]imidazol-2-yl)methyl)-N-(2-(1H-imidazol-5-yl)ethyl)-1-(pyridin-2-yl)ethan-1-amine] | ≥ 1000 nM | 0.01 to 100 nM | < 5 ×10⁻⁶ cm/s | > 10 ×10⁻⁶ cm/s | > 30
8 | Cc1cccnc1CN(CCc1cnc[nH]1)C(C)c1ccccn1 (stereo not shown) [Compound I-8] | ≥ 1000 nM | 0.01 to 100 nM | < 5 ×10⁻⁶ cm/s | > 10 ×10⁻⁶ cm/s | 10 to 30
9 | Cc1cccnc1CN(CCc1cnc[nH]1)Cc1ncccc1C [Compound I-9] | 0.01 to 100 nM | 0.01 to 100 nM | < 5 ×10⁻⁶ cm/s | > 10 ×10⁻⁶ cm/s | 10 to 30
10 | Cc1cccnc1CN(CCc1cnc[nH]1)Cc1ncccc1Cl [Compound I-10] | 100 to 1000 nM | 0.01 to 100 nM | 5 to 10 ×10⁻⁶ cm/s | > 10 ×10⁻⁶ cm/s | 0.1 to 10
11 | CC(c1ccccn1)N(CCC(N)=O)Cc1ccccn1 (stereo not shown) [Compound I-11] | ≥ 1000 nM | 100 to 1000 nM | 5 to 10 ×10⁻⁶ cm/s | > 10 ×10⁻⁶ cm/s | 0.1 to 10
12 | CC(c1ccccn1)N(CCC(N)=O)Cc1nc2ccccc2[nH]1 (stereo not shown) [Compound I-12, 3-(((1H-benzo[d]imidazol-2-yl)methyl)(1-(pyridin-2-yl)ethyl)amino)propanamide] | ≥ 1000 nM | 100 to 1000 nM | < 5 ×10⁻⁶ cm/s | > 10 ×10⁻⁶ cm/s | > 30
13 | Cc1cccnc1CN(CCC(N)=O)C(C)c1ccccn1 (stereo not shown) [Compound I-13] | ≥ 1000 nM | 0.01 to 100 nM | > 10 ×10⁻⁶ cm/s | > 10 ×10⁻⁶ cm/s | 0.1 to 10
14 | Cc1cccnc1CN(CCC(N)=O)Cc1ncccc1C [Compound I-14, 3-(Bis((3-methylpyridin-2-yl)methyl)amino)propanamide] | ≥ 1000 nM | 100 to 1000 nM | > 10 ×10⁻⁶ cm/s | > 10 ×10⁻⁶ cm/s | 0.1 to 10
15 | Cc1cccnc1CN(CCC(N)=O)Cc1ncccc1Cl [Compound I-15] | ≥ 1000 nM | 100 to 1000 nM | > 10 ×10⁻⁶ cm/s | > 10 ×10⁻⁶ cm/s | 0.1 to 10
16 | c1cnc2c(c1)CCC[C@@H]2N(CCC1CCCCO1)Cc1nc2ccccc2[nH]1 (stereo partly shown) [Compound I-16] | ≥ 1000 nM | 100 to 1000 nM | > 10 ×10⁻⁶ cm/s | > 10 ×10⁻⁶ cm/s | 0.1 to 10
17 | c1cnc2c(c1)CCC[C@@H]2N(CCC1CCCO1)Cc1nc2ccccc2[nH]1 (stereo partly shown) [Compound I-17] | ≥ 1000 nM | 0.01 to 100 nM |  |  | 
18 | COCCCN(Cc1nc2ccccc2[nH]1)[C@H]1CCCc2cccnc21 [Compound I-18] | 100 to 1000 nM | 0.01 to 100 nM |  |  | 
19 | CC(=O)NCCCN(Cc1ncccc1C)[C@H]1CCCc2cccnc21 [Compound I-29] | ≥ 1000 nM | 0.01 to 100 nM |  |  | 
20 | CC(=O)NCCN(Cc1ncccc1C)[C@H]1CCCc2cccnc21 [Compound I-30] | 100 to 1000 nM | 0.01 to 100 nM |  |  | 
21 | CC[C@H]1OC(=O)[C@H](C)[C@@H](O[C@H]2C[C@@](C)(OC)[C@@H](O)[C@H](C)O2)[C@H](C)[C@@H](O[C@@H]2O[C@H](C)C[C@H](N(C)C)[C@H]2O)[C@](C)(O)C[C@@H](C)C(=O)[C@H](C)[C@@H](O)[C@]1(C)O [Erythromycin, reference compound] |  |  |  |  | > 116
22 | COCCc1ccc(OCC(O)CNC(C)C)cc1 (stereo not shown) [Metoprolol, reference compound] |  |  | > 10 ×10⁻⁶ cm/s | > 10 ×10⁻⁶ cm/s | 
